From the supplement of paper PMC11061612

Experiments:
[1] = test system: HCC-15 (Squamous Cell Lung Carcinoma); assay: combination Emax (second highest fraction inhibited in the dose matrix, 72 h); higher = more inhibition; extreme values may be limits of the assay
Method in brief: (§1)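 Bliss excess equals the observed combination effect minus the expected value EA + EB − EA·EB, where EA and EB are the effects of each agent alone. Combination Emax is the second-highest inhibition within the matrix. Inhibition was scaled from CellTiter-Glo 2.0 luminescence, with 0 set by vehicle wells and 1 by blank wells, after 72 hours of two-drug dosing of cells plated in 1536-well plates.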

[2] = test system: 639-V (Bladder Carcinoma); assay: as above
Method in brief: as §1

[3] = test system: EN (Endometrial Carcinoma); assay: as above
Method in brief: as §1

[4] = test system: PCI-30 (Head and Neck Carcinoma); assay: as above
Method in brief: as §1

[5] = test system: UMC-11 (Other Solid Carcinomas); assay: as above
Method in brief: as §1

NB14 (Neuroblastoma) = assay: as above
Method in brief: as §1

SH-4 (Melanoma) = assay: as above
Method in brief: as §1

[6] = test system: HARA (Squamous Cell Lung Carcinoma); assay: as above
Method in brief: as §1

[7] = test system: KYSE-410 (Esophageal Squamous Cell Carcinoma); assay: as above
Method in brief: as §1

[8] = test system: SK-OV-3 (Ovarian Carcinoma); assay: as above
Method in brief: as §1

COLO-829 (Melanoma) = assay: as above
Method in brief: as §1

[9] = test system: SUP-T1 (T-Lymphoblastic Leukemia); assay: as above
Method in brief: as §1

[10] = test system: CAPAN-1 (Pancreatic Carcinoma); assay: as above
Method in brief: as §1

NCI-H2461 (Mesothelioma) = assay: as above
Method in brief: as §1

[11] = test system: TE-4 (Esophageal Squamous Cell Carcinoma); assay: as above
Method in brief: as §1

[12] = test system: SW1116 (Colorectal Carcinoma); assay: as above
Method in brief: as §1

[13] = test system: SU-DHL-6 (B-Cell Non-Hodgkin's Lymphoma); assay: Bliss excess, mean over the matrix (fraction); higher = more synergy
Method in brief: as §1

[14] = test system: HARA (Squamous Cell Lung Carcinoma); assay: as above
Method in brief: as §1

[15] = test system: OVCAR-8 (Ovarian Carcinoma); assay: as above
Method in brief: as §1

[16] = test system: SW1116 (Colorectal Carcinoma); assay: as above
Method in brief: as §1

SMILES	combination Emax [1]	combination Emax [2]	combination Emax [3]	combination Emax [4]	combination Emax [5]	combination Emax (NB14 (Neuroblastoma))	combination Emax (SH-4 (Melanoma))	combination Emax [6]	combination Emax [7]	combination Emax [8]	combination Emax (COLO-829 (Melanoma))	combination Emax [9]	combination Emax [10]	combination Emax (NCI-H2461 (Mesothelioma))	combination Emax [11]	combination Emax [12]	Bliss excess [13]	Bliss excess [14]	Bliss excess [15]	Bliss excess [16]
CN(C)CCCOc1ccc(-c2ccc3ncc4c(c3c2)n(C2CCOCC2)c(=O)n4C)cn1 [AZD0156] + C=CCn1c(=O)c2cnc(Nc3ccc(N4CCN(C)CC4)cc3)nc2n1-c1cccc(C(C)(C)O)n1 [AZD1775] (first compound max 1 µM, partner max 1 µM)	0.299	0.204	0.512	0.265	0.377	1	0.564	0.809	0.32	0.54	0.099	0.872	0.394	0.674	0.324	0.235	-0.0384	-0.007	-0.0053	-0.0336
CN(C)CCCOc1ccc(-c2ccc3ncc4c(c3c2)n(C2CCOCC2)c(=O)n4C)cn1 [AZD0156] + CCN(CCO)CCCOc1ccc2c(Nc3cc(CC(=O)Nc4cccc(F)c4)[nH]n3)ncnc2c1 [AZD2811] (first compound max 1 µM, 7x7, partner max 1 µM)	0.665	0.179	0.494	0.192	0.758	0.857	0.247	0.289	0.0555	0.138	0.069	0.366	0.137	0.195	0.071	0.0823	-0.0026	0.0136	0.0425	-0.0339
CN(C)CCCOc1ccc(-c2ccc3ncc4c(c3c2)n(C2CCOCC2)c(=O)n4C)cn1 [AZD0156] + C[C@@H]1COCCN1C2=NC(=NC(=C2)C3(CC3)[S@](=N)(=O)C)C4=C5C=CNC5=NC=C4 [AZD6738] (first compound max 1 µM, 7x7, partner max 10 µM)	0.146	0.35	0.581	0.659	0.642	0.979	0.465	0.908	0.297	0.617	0.159	0.78	0.368	0.71	0.604	0.28	0.0136	0.0257	0.0296	-0.034
CN(C)CCCOc1ccc(-c2ccc3ncc4c(c3c2)n(C2CCOCC2)c(=O)n4C)cn1 [AZD0156] + O=C(c1cc(Cc2n[nH]c(=O)c3ccccc23)ccc1F)N1CCN(C(=O)C2CC2)CC1 [Olaparib] (first compound max 3 µM, partner max 3 µM)	0.371	0.443	0.227	0.234	0.246	0.611	0.327	0.411	0.172	0.228	0.0677	0.432	0.295	0.292	0.206	0.206	0.125	0.0504	0.0073	-0.0431
C=CCn1c(=O)c2cnc(Nc3ccc(N4CCN(C)CC4)cc3)nc2n1-c1cccc(C(C)(C)O)n1 [AZD1775] + C1CN(CCC1(C(=O)N[C@@H](CCO)C2=CC=C(C=C2)Cl)N)C3=NC=NC4=C3C=CN4 [Capivasertib] (first compound max 3 µM, partner max 3 µM)	0.878	0.642	0.715	0.477	0.696	0.98	0.715	0.929	0.663	0.581	0.322	0.916	0.674	0.67	0.88	0.48	0.0012	-0.0002	-0.0167	-0.0561
C=CCn1c(=O)c2cnc(Nc3ccc(N4CCN(C)CC4)cc3)nc2n1-c1cccc(C(C)(C)O)n1 [AZD1775] + CCc1c2c(nc3ccc(O)cc13)-c1cc3c(c(=O)n1C2)COC(=O)[C@]3(O)CC [SN-38] (first compound max 1 µM, partner max 0.3 µM)	–	–	0.699	0.836	–	0.997	0.607	0.943	–	0.525	–	0.84	0.799	0.702	–	0.43	0.0224	-0.015	–	-0.0987
C=CCn1c(=O)c2cnc(Nc3ccc(N4CCN(C)CC4)cc3)nc2n1-c1cccc(C(C)(C)O)n1 [AZD1775] + C[C@@H]1COCCN1C2=NC(=NC(=C2)C3(CC3)[S@](=N)(=O)C)C4=C5C=CNC5=NC=C4 [AZD6738] (first compound max 1 µM, partner max 10 µM)	0.504	0.457	0.764	0.696	0.785	1	0.56	0.906	0.499	0.755	0.129	0.882	0.49	0.764	0.805	0.506	0.0458	-0.0239	0.0818	-0.0075
C=CCn1c(=O)c2cnc(Nc3ccc(N4CCN(C)CC4)cc3)nc2n1-c1cccc(C(C)(C)O)n1 [AZD1775] + O=C(c1cc(Cc2n[nH]c(=O)c3ccccc23)ccc1F)N1CCN(C(=O)C2CC2)CC1 [Olaparib] (first compound max 1 µM, partner max 10 µM)	0.31	0.333	0.531	0.374	0.438	0.986	0.492	0.743	0.251	0.547	0.174	0.879	0.516	0.649	0.366	0.343	-0.0222	-0.0325	-0.0303	-0.0069
CN(CCO)CC[C@H](CSc1ccccc1)Nc1ccc(S(=O)(=O)NC(=O)c2ccc(N3CCC([C@@H](O)c4ccccc4-c4ccc(Cl)cc4)CC3)cc2)cc1S(=O)(=O)C(F)(F)F [AZD4320] + CN(C)CCCOc1ccc(-c2ccc3ncc4c(c3c2)n(C2CCOCC2)c(=O)n4C)cn1 [AZD0156] (first compound max 1 µM, 7x7, partner max 1 µM)	0.936	0.19	0.218	0.158	0.567	0.983	0.16	0.187	0.108	0.346	0.0619	0.385	0.145	0.259	0.0906	0.191	–	0.0007	-0.0434	-0.069
Cc1c2c(nn1C)CSCc1cc(n(C)n1)CSc1cc(c3ccccc3c1)OCCCc1c(C(=O)O)n(C)c3c-2c(Cl)ccc13 [AZD5991] + CN(C)CCCOc1ccc(-c2ccc3ncc4c(c3c2)n(C2CCOCC2)c(=O)n4C)cn1 [AZD0156] (first compound max 1 µM, 7x7, partner max 1 µM)	0.303	0.239	0.572	0.232	0.486	0.771	0.316	0.312	0.236	0.342	0.118	0.371	0.252	0.307	0.481	0.173	-0.0154	–	0.0408	-0.0032
CS(=O)(=O)CCNCc1ccc(-c2ccc3ncnc(Nc4ccc(OCc5cccc(F)c5)c(Cl)c4)c3c2)o1 [Lapatinib] + Cn1cnc2c(F)c(Nc3ccc(Br)cc3Cl)c(C(=O)NOCCO)cc21 [Selumetinib] (first compound max 10 µM, 7x7, partner max 10 µM)	–	–	0.345	0.335	–	0.898	0.868	0.76	–	0.347	–	0.53	0.615	0.488	–	0.73	0.0412	-0.0257	–	0.0744
CS(=O)(=O)CCNCc1ccc(-c2ccc3ncnc(Nc4ccc(OCc5cccc(F)c5)c(Cl)c4)c3c2)o1 [Lapatinib] + NC1(c2ccc(-c3nc4ccn5c(=O)[nH]nc5c4cc3-c3ccccc3)cc2)CCC1 [MK-2206] (first compound max 10 µM, 7x7, partner max 10 µM)	–	–	0.512	0.475	–	0.941	0.901	0.953	–	0.658	0.311	0.912	0.331	0.495	–	0.627	0.0378	0.086	–	-0.01
CCc1c2c(nc3ccc(O)cc13)-c1cc3c(c(=O)n1C2)COC(=O)[C@]3(O)CC [SN-38] + O=C(c1cc(Cc2n[nH]c(=O)c3ccccc23)ccc1F)N1CCN(C(=O)C2CC2)CC1 [Olaparib] (first compound max 0.3 µM, 7x7, partner max 10 µM)	–	1	0.18	0.727	0.24	0.967	0.48	0.852	0.423	0.535	0.662	0.84	0.818	0.639	0.402	0.214	0.0391	0.124	–	0.0152
Cc1nc(-c2cn3c(n2)-c2ccc(-c4cnn(C(C)(C)C(N)=O)c4)cc2OCC3)n(C(C)C)n1 [Taselisib] + O=C(Nc1ccc2[nH]nc(-c3ccncc3)c2c1)[C@@H]1CCN(CC(=O)N2CCN(c3ccc(-c4ncccn4)cc3)CC2)C1 [SCH772984] (first compound max 10 µM, 7x7, partner max 5 µM)	–	–	0.619	0.4	–	0.697	0.921	0.871	–	0.69	–	0.609	0.77	0.6	–	0.521	0.0251	0.0577	–	0.0831
